In patent US20110104301A1, “METHODS OF REDUCING PAIN AND INFLAMMATION” (Georgetown University, A Congressionally Chartered …, priority 2008, published 2011):

Tests used:
[1] = system: DRG neurons from TRPA1-null mice; assay: Ca2+ imaging in DRG neurons from TRPA1-null mice; format: cell-based, mouse; conditions: desflurane n=125, propofol n=120
Method: (§1) Ca^2+ Imaging. Neurons were loaded with 1 μM Fluo4-AM (Molecular Probes) for 20 min and washed for a further 10-20 min before recording. The dye was excited at 488±15 nm. Emitted fluorescence was filtered with a 535±25 nm bandpass filter, captured by a SPOT RT digital camera (Diagnostic Instruments) and read into a computer. Analysis was performed offline by using Simple PCI software (Compix Inc.).

DRG neurons = assay: Ca2+ imaging in DRG neurons from wild-type mice; format: cell-based, mouse; conditions: 1.5 mM, 3 MAC
Method: as §1

[2] = system: AITC-sensitive DRG neurons; assay: Voltage- and current-clamp of DRG sensory neurons; format: cell-based, mouse; conditions: 0.9 mM, wild-type mice, voltage-clamp, 11 of 35
TRPM8 = target: T1, TRPM8 (Rattus norvegicus, UniProt Q8R455); assay: Whole-cell patch-clamp of TRPM8-expressing HEK293 cells; format: cell-based
T1 construct: expressed in transfected cells; host or cells: HEK 293F
Method: (§2) Electrophysiology. […] Whole-cell and single-channel patch-clamp recordings were performed by using an EPC8 amplifier (HEKA Electronics). For whole-cell and excised patch recordings the bath solution contained 140 mMNaCl, 4 mMKCl, 1 mMMgCl2, 1.2 mMCaCl2, 10 mMHepes, 10 mM glucose, pH 7.3. For cell-attached experiments, NaCl was replaced with KCl in the bath solution. […] For neuronal recording NaCl was replaced with K-gluconate (plus 1 mMATP, 0.2 mM GTP). Solutions were applied via a gravity-fed system. […] Voltage-dependent properties were measured as described in Matt and Ahern, J. Physiol. […] The baseline currents under control conditions were subtracted. For cell-attached experiments, peak amplitudes were measured from all-points histograms, and open probability was measured as NPo>750 ms. Defolliculated Xenopus laevis oocytes were injected with ≈10 ng of hTRPA1 (gift of Ardem Patapoutian, The Scripps Research Institute, La Jolla, Calif.).

TRPV1 = TRPV1 (Rattus norvegicus, UniProt O35433); assay: Whole-cell patch-clamp of TRPV1-expressing HEK293 cells; format: cell-based; design: expressed in transfected cells; host or cells: HEK 293F (Invitrogen), co-transfected with GFP cDNA
Method: as §2
HEK cell and sensory neuron electrophysiology. […] Cell cultures were maintained at 37° C. with 5% CO2. Cells were transfected with rat TRPV 1 (gift of David Julius), and GFP cDNA using Lipofectamine™ Transfection Reagent (Invitrogen) and used 24-48 h after transfection. Nodose ganglia were obtained from adult mice (C57B16/J and TRPV1-null), cut, digested with collagenase, and cultured in Neurobasal +2% B-27 medium (Invitrogen), 0.1% L-glutamine and 1% penicillin/streptomycin on poly-D lysine-coated glass coverslips at 37° C. in 5% CO2. Neurons were used within 24-36 hr of culture. Whole-cell and single-channel patch clamp recordings were performed using an EPC8 amplifier (HEKA). The current signal was low-pass filtered at 1-3 kHz and sampled at 4 kHz. Currents were further filtered for display purposes. For whole-cell and excised patch recordings the bath solution contained (in mM): 140 NaCl, 4 KCl, 1 MgCl2, 1 EGTA, 10 HEPES, 10 glucose pH 7.3 (290 mOsm). The pipette solution contained (in mM): 140 CsC1, 10 NaCl, 10 HEPES, 5 EGTA, 2 Mg ATP and 0.03 GTP, pH 7.3. The peak amplitudes measured either during the prepulse or the tail current (within 1 ms) were plotted as a function of the test potential and normalized to the maximal current obtained from the following Boltzmann function: […]

mice = assay: AITC (mustard oil)-induced ear swelling, neurogenic inflammation during anesthesia; format: in vivo, mouse; conditions: 1.2 MAC
Method: Behavioral Experiments and Neurogenic Inflammation. Animal experiments were performed according to National Institutes of Health and institutional guidelines. […] Nocifensive behavior (nose wiping in sawdust bedding) was recorded for 2 min with a video camera and the duration was subsequently measured by a blinded observer. […] Electromyographic (EMG) activity was recorded via platinum electrodes from the semitendinosus muscle in mice anesthetized with urethane (1.3 g/kg) as described in Ando and Watanabe, Br J. Anaesth. […] The EMG signal was recorded by using a low-pass cutoff frequency of 200 Hz and integrated offline by using a 100-ms time window. […] Ear thickness was recorded by using an engineer's micrometer (Mitutoyo Corp.) before mustard-oil application and thereafter every 15 min for 60 min of anesthesia and 60 min of recovery.

[3] = isoflurane 0.9 mM, octanol 1 mM

TRPV1, sequence (O35433 whole entry): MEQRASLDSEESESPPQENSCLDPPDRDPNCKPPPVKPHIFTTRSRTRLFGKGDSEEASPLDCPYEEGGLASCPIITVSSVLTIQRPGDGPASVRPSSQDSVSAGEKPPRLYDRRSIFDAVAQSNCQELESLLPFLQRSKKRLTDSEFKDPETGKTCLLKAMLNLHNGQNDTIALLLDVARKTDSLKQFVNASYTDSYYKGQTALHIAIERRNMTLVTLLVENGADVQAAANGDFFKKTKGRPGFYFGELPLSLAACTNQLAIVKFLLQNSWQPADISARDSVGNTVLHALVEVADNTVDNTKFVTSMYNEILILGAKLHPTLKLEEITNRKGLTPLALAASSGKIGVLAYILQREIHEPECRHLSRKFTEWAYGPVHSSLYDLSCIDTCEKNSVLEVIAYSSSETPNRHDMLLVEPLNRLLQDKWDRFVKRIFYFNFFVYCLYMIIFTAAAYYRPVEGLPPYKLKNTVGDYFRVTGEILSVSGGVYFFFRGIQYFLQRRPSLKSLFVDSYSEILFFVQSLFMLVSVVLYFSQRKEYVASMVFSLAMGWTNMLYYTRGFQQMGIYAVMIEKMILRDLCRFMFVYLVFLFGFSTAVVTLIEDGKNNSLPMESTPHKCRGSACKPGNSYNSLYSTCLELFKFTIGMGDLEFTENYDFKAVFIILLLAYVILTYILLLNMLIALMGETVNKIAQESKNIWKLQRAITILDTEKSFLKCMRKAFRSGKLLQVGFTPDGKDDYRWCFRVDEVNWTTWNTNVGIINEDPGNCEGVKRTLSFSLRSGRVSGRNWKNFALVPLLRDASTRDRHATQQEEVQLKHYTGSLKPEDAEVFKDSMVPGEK
T1 sequence (Q8R455 whole entry): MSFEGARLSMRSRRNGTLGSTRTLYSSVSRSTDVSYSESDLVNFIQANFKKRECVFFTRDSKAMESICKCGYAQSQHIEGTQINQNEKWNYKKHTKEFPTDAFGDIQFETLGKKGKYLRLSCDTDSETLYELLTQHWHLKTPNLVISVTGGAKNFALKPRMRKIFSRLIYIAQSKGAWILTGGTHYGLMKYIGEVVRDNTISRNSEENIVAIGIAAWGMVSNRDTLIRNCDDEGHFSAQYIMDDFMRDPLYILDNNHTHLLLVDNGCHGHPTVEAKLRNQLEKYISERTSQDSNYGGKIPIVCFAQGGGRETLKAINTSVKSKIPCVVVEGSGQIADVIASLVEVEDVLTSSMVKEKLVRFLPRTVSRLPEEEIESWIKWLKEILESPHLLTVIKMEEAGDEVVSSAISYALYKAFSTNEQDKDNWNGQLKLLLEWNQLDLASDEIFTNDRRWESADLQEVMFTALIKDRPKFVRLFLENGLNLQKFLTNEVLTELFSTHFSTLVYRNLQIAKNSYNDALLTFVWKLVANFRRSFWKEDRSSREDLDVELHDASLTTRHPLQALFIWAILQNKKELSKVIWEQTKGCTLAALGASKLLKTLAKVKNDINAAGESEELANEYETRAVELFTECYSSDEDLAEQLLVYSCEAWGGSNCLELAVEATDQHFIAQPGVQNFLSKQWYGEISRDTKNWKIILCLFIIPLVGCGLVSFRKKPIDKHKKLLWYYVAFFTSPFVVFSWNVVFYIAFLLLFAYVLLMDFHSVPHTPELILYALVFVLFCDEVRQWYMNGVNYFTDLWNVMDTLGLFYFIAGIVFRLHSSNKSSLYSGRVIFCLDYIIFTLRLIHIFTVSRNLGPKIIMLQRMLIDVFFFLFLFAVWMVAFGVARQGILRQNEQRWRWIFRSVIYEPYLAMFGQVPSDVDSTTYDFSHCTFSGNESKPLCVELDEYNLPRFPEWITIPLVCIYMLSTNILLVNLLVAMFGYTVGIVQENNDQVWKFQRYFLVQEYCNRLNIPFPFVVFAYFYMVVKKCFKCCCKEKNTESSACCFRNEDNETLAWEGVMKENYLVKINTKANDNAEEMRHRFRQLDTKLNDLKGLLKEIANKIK

Row | SMILES | Ca2+ responses in neurons from TRPA1-null mice [1] | Neurons with evoked Ca2+ increase (DRG neurons) | Neurons with evoked currents [2] [%] | Activation of TRPM8 currents (TRPM8; 0.9 mM (2.9 MAC)) | Effects at TRPM8 at holding potential −50 mV (TRPM8; [3]) | Activation of TRPV1 currents (TRPV1; 0.9 mM (2.9 MAC)) | Currents evoked after PDBu treatment in TRPV1-expressing HEK293 cells (TRPV1; VGA 0.9 mM, PDBu 500 nM, room temperature (25° C.)) | Effect on TRPV1 when applied together with saturating octanol (TRPV1; isoflurane 0.9 mM + octanol 1.8 mM) | Enhancement of maximal voltage-evoked TRPV1 current (TRPV1; isoflurane 0.9 mM, n=5) [%] | Reduction of TRPV1 V1/2 (TRPV1; isoflurane 0.9 mM, n=5) [mV] | Effects at TRPV1 at holding potential −50 mV (TRPV1; [3]) | V1/2 of TRPV1 voltage activation with isoflurane (Boltzmann fit) (TRPV1; isoflurane 0.9 mM, control 161.5±2.7 mV) [mV] | AITC-induced ear swelling during anesthesia, compared with sevoflurane (mice; AITC 0.6%, 15-120 min, n=7, P<0.01) | Swelling in the unpainted ear (mice; at 90 and 120 min)
1 | FC(F)OC(F)C(F)(F)F (centres unmarked) [desflurane] | no responses | 36 of 123 | – | – | – | – | – | – | – | – | – | – | – | –
2 | FC(F)OC(Cl)C(F)(F)F (centres unmarked) [isoflurane] | – | – | 31 | failed to activate | negligible effects | failed to activate | activates currents | negligible effects | 15±6 | 23.0±6.2 | negligible effects | 129.0±3.6 | significantly greater swelling | small increase in swelling
